We go through nine molecules from US6685851B2, “Derivatives of cycloaliphatic diamines as cosolvents for aqueous hydrophobic amines” (PRC-DeSoto International, Inc., priority 1999, dated 2004).

Common to all, as to assay type: physicochemical
Data set [1] is described as follows: Water added dropwise to 1:1 hydrophobic amine/cosolvent amine blend until turbidity (visible light scattering). The protocol:
To illustrate the efficiency of the present invention to solubilize various hydrophobic amines, one part by weight of various commercially available hydrophobic amines is blended with one part by weight of a cosolvent amine. Water is then added dropwise with vigorous stirring to the blend of one part hydrophobic amine and one part cosolvent amine. The parts of water added is monitored by the appearance of turbidity as measured by visible light scattering. […] Cosolvents amines A-D are those of the present invention. In order to assess the relative efficiency of the cosolvent amines of the present invention, A-D; conventional cosolvent amines, E-I and the omission of a cosolvent, J are also evaluated.

The nature of data set [2]: Aqueous solution of polyamidoamine with cosolvent amine, appearance and stability (Example 1). To be noted: 10 parts polyamidoamine, 10 parts cosolvent, 150 parts room temperature water. As to the method:
10 parts of a polyamidoamine (Air Products 506 amidoamine) is added to a reactor equipped with a mechanical agitator.

The target of a further data set is T1, bacteriorhodopsin (Halobacterium salinarum, UniProt P02945).
T1 construct: A lyophilized powder of bacteriorhodopsin is obtained according to D. Oesterhett Mtds; Enzy 31, 1974, 667; made in house; host or cells: Isolated from the natural producer (Halobacterium) by the cited literature method
T1 sequence (P02945 14-262): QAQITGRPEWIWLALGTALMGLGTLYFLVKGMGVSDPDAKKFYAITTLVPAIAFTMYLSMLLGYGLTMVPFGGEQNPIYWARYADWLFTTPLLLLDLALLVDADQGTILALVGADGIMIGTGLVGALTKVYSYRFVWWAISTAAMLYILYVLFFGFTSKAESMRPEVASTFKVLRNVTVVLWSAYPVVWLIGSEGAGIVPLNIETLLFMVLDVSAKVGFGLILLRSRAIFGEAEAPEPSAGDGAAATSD
Briefly: Dispersion of bacteriorhodopsin in aqueous cosolvent by small angle x-ray scattering (Example 3). To be noted: 0.1 gram bacteriorhodopsin, 0.1 grams cosolvent, 1.1 grams water. From the text: A lyophilized powder of bacteriorhodopsin is obtained according to D. Oesterhett Mtds. Enzy 31, 1974, 667. 0.1 gram of bacteriorhodopsin is mixed with 0.1 grams of 1,2 diaminocycylohexane cosolvent and 1.1 grams of water added.

The mark [3] stands for this setting: 1 part Air Products 506 Amidoamine + 1 part cosolvent amine by weight.
Setting [4] is: 1 part Air Products 2460 Polyamide + 1 part cosolvent amine by weight.
Where [5] appears, read: 1 part Cardolite NC-540 Phenalkamine + 1 part cosolvent amine by weight.

A value given as a limit tells only on which side of the number the result lay.

`CC1(C)CC(N)CC(C)(CN)C1` (stereo not drawn) [Cosolvent A, Isophorone diamine]: the entries for the “Parts of water added to 2 parts of amine blend yielding a clear solution” value (from here on “Parts of water added”) in data set [1] (setting [3]), in data set [1] (setting [4]) and in data set [1] (setting [5]) were more than 28 parts, more than 22 parts and more than 30 parts, respectively.
With `NCC1CCCC(CN)C1` (stereo not drawn) [Cosolvent B, 1,3-Bis (aminomethyl) cyclohexane], the “Parts of water added” value is on record as more than 19 parts in data set [1] (setting [3]), more than 10 parts in data set [1] (setting [4]) and more than 18 parts in data set [1] (setting [5]). Further, in data set [2], the “Appearance of aqueous solution” value is recorded as “uniform, clear solution is formed”. Besides, the “Stability of the solution” value in data set [2] is listed as “stable for greater than three months”.
On to `NC1CCCCC1N` (stereo not drawn) [Cosolvent C, 1,2-Diamino cyclohexane], for which the “Dispersion of bacteriorhodopsin in the aqueous cosolvent” value at bacteriorhodopsin was “uniformly dispersed”.
Consider `NC1CCCC1N` (stereo not drawn) [Cosolvent D, 1,2 Diaminocyclopentane], for which the “Parts of water added” value is given as less than 5 parts in data set [1] (setting [3]), less than 5 parts in data set [1] (setting [4]) and less than 3.5 parts in data set [1] (setting [5]).
On to `CC(CN)CCCN` (stereo not drawn) [Cosolvent E], for which the “Parts of water added” value is less than 6 parts in data set [1] (setting [3]), 3.5 parts in data set [1] (setting [4]) and less than 3.9 parts in data set [1] (setting [5]).
As to `NCCCN1CCN(CCCN)CC1` [Cosolvent F, 1,4-Bis (3-aminopropyl) piperazine, reference compound], the “Parts of water added” value was less than 4 parts in data set [1] (setting [3]), less than 2 parts in data set [1] (setting [4]) and “<.5 parts” in data set [1] (setting [5]).
For the molecule `NCCOCCOCCN` [Cosolvent G], the entries for the “Parts of water added” value in data set [1] (setting [3]), in data set [1] (setting [4]) and in data set [1] (setting [5]) were less than 2 parts, less than 2 parts and “<.5 parts”, respectively.
Consider `CCCCC(N)CN` (stereo not drawn) [Cosolvent H, 1,2-Hexanediamine, reference compound], for which the “Parts of water added” value in data set [1] (setting [3]) is on record as less than 7 parts; in data set [1] (setting [4]) it was less than 3.6 parts; in data set [1] (setting [5]), less than 3 parts.
As to `NCc1cccc(CN)c1` [Cosolvent I, m-Xylylenediamine, reference compound], the “Parts of water added” value in data set [1] (setting [3]) is given as less than 5 parts; in data set [1] (setting [4]), less than 3.75 parts; in data set [1] (setting [5]) it was “<.5 parts”.
